These results are taken from patent US8097440B1, “Engineered microorganisms capable of producing target compounds under anaerobic conditions” (Gevo, Inc., priority 2008, dated 2012).

Format in all cases: biochemical
What all share (settings): relative to Ec_IlvC^his6 with NADPH

Test [1] has as its target T1, E. coli KARI Ec_IlvC variant Ec_IlvC^Q110A-his6 (Q110A), SEQ ID NO: 21 (Escherichia coli, UniProt P05793, Q110A).
T1 sequence (P05793 with tags, fused parts or gaps Q110A): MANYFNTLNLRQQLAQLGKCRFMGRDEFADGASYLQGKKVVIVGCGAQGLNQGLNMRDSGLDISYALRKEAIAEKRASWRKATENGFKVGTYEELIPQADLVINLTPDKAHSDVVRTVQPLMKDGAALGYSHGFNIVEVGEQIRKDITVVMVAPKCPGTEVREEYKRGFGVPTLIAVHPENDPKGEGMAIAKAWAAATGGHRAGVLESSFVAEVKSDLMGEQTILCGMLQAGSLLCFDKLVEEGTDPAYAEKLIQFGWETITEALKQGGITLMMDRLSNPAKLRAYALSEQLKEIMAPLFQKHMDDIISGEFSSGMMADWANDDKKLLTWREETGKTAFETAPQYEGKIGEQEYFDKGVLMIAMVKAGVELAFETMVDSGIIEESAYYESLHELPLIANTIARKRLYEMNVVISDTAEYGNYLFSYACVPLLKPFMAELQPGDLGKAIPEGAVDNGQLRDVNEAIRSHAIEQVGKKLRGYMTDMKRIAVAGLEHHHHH
Nature of the test: KARI cuvette assay, purified Ec_IlvC^Q110A-his6. As for the experimental part: (§1) KARI cuvette assay: KARI activity was assayed kinetically by monitoring the decrease in NAD(P)H concentration by measuring the absorbance at 340 nm. A reaction buffer was prepared containing 250 mM potassium phosphate pH 7, 1 mM DTT and 10 mM MgCl2. Cell pellets were resuspended (0.25 g wet weight/mL buffer) in 250 mM potassium phosphate (KPi) buffer containing 1 mM DTT and 10 mM MgCl2. The resuspended cells were lysed by sonication for 1 min with a 50% duty cycle and pelleted at 11000×g and 4° C. for 15 min. A reaction mixture consisting of 910 μl reaction buffer, 50 μl acetolactate, and 20 μl lysate was prepared in a cuvette. The reaction was initiated by addition of 20 μL of 10 mM NAD(P)H. A substrate free control was conducted using reaction buffer without the addition of acetolactate.
(§2) Purification of KARI: Cell pellets used for purification were resuspended in purification buffer A (20 mM Tris, 20 mM imidazol, 100 mM NaCl, 10 mM MgCl2, pH 7.4). KARI was purified by IMAC (Immobilized metal affinity chromatography) over a 1 ml Histrap High Performance (histrap HP) column pre-charged with Nickel (GE Healthcare) using an Akta FPLC system (GE Healthcare). […]

Test [2] has as its target T2, E. coli KARI Ec_IlvC variant Ec_IlvC^Q110V-his6 (Q110V), SEQ ID NO: 23 (Escherichia coli, UniProt P05793, Q110V).
T2 sequence (P05793 with tags, fused parts or gaps Q110V): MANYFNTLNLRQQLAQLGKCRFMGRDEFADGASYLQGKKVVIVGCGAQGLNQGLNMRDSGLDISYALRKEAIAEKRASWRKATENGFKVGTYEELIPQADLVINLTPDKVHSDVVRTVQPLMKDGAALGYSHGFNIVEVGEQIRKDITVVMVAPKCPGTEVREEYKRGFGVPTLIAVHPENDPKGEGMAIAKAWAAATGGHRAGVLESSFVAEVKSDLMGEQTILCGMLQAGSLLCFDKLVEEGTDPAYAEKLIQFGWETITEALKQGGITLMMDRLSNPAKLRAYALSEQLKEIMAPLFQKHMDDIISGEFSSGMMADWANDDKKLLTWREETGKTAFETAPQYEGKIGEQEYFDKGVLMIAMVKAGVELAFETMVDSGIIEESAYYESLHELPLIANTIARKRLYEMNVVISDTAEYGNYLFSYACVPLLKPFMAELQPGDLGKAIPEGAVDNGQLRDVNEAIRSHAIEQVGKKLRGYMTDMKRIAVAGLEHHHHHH
Nature of the test: KARI cuvette assay, purified Ec_IlvC^Q110V-his6. The procedure:
as §1, §2

Test [3] addresses T3, E. coli KARI Ec_IlvC variant Ec_IlvC^S78D-his6 (S78D), SEQ ID NO: 17 (Escherichia coli, UniProt P05793, S78D).
T3 sequence (P05793 with tags, fused parts or gaps S78D): T2 sequence (P05793 with tags, fused parts or gaps Q110V) with S78D, V110Q
Put plainly: KARI cuvette assay, purified Ec_IlvC^S78D-his6. As for the experimental part: as §1, §2

The structures appear in SMILES notation. Positions count from the first letter of the chain named.

On to `NC(=O)C1=CN([C@@H]2O[C@H](COP(=O)(O)OP(=O)(O)OC[C@H]3O[C@@H](n4cnc5c(N)ncnc54)[C@H](O)[C@@H]3O)[C@@H](O)[C@H]2O)C=CC1` [NADH, nicotinamide adenine dinucleotide], for which the “(kcat/KM with NADH)/(kcat/KM of Ec_IlvC^his6 with NADPH)” value in test [1] was found to be 13%; in test [2], 28%; in test [3] it was 32%.
